Experiment [1] relates to murine melanoma cell line, B16. Briefly: B16 cancer cell screening assay: inhibition of lactate dehydrogenase (LDH) release. The class given is cell-based. The conditions noted are these: B16 cells exposed to several concentrations. How it is done:
(§1) The murine melanoma cell line, B16, was used to screen the activity of compounds comprising Formula (V). B16 cells were grown under standard conditions and exposed to several concentrations of each of the tested compounds.

The subject of experiment [2] is murine melanoma cell line, B16. As to the kind of experiment: B16 cancer cell screening assay: inhibition of B16 proliferation. The class given is cell-based. To be noted: B16 cells exposed to several concentrations; for IC50: read-out: B16 Profile IC50. How it is done: as §1
[3] abbreviates: Mus musculus, B16, inhibition of lactate dehydrogenase (LDH) release.
Where [4] appears, read: Mus musculus, B16, inhibition of B16 proliferation.
Where [5] appears, read: inhibition of lactate dehydrogenase (LDH) release.
[6] abbreviates: inhibition of B16 proliferation.

On to `CC[C@@H]1c2c(ccc(OC)c2O)C[C@H]2c3ccc(OC)cc3CCN12` [M-R-0001], for which the IC50 in experiment [1] (setting [3]) was 175 µM; in experiment [2] (setting [4]), > 600 µM.
As for `COc1ccc2c(c1)CCN1[C@H]2Cc2cc(O)c(OC)cc2[C@H]1C1CCC1` [M-R-0002], the IC50 in experiment [1] (setting [3]) and in experiment [2] (setting [4]) was 200 µM throughout.
Regarding `COc1ccc2c(c1)CCN1[C@H]2Cc2ccc(OC)c(O)c2[C@H]1C1CCC1` [M-R-0003], the values for the IC50 in experiment [1] (setting [3]) and in experiment [2] (setting [4]) were 150 µM and > 600 µM, respectively.
Take `COc1ccc2c(c1)CCN1Cc3cc(OC)c(O)cc3C[C@@H]21` [M-R-0004]: the IC50 in experiment [1] (setting [3]) and in experiment [2] (setting [4]) was > 600 µM in each case.
With `COc1ccc2c(c1)CCN1[C@H](c3ccccc3)c3cc(OC)c(O)cc3C[C@@H]21` [M-R-0005], the results for the IC50 in experiment [1] (setting [3]) and in experiment [2] (setting [4]) were 30 µM and 35 µM, respectively.
As to `COc1ccc2c(c1)CCN1[C@@H](c3ccccc3)c3cc(OC)c(O)cc3C[C@@H]21` [M-R-0006], the IC50 in experiment [1] (setting [3]) and in experiment [2] (setting [4]) was 35 µM throughout.
With `CCC[C@@H]1c2cc(OC)c(O)cc2C[C@H]2c3ccc(OC)cc3CCN12` [M-R-0007], in experiment [1] (setting [5]), the “B16 LDH IC50” value is “Inactive”. Moreover, the IC50 in experiment [2] (setting [4]) is > 400 µM.
As to `COc1ccc2c(c1)CCN1Cc3c(ccc(OC)c3O)C[C@@H]21` [M-R-0008], the IC50 in experiment [1] (setting [3]) is > 320 µM; in experiment [2] (setting [4]), 38 µM.
As for `COc1ccc2c(c1)CCN1Cc3cc(OC)c(O)cc3C[C@H]21` [M-R-0009], the “B16 LDH IC50” value in experiment [1] (setting [5]) was “Inactive”. In addition, in experiment [2] (setting [6]), the “B16 Profile IC50” value is “Inactive”.
With `COc1ccc2c(c1)CCN1Cc3c(ccc(OC)c3O)C[C@H]21` [M-R-0010], the “B16 LDH IC50” value in experiment [1] (setting [5]) is on record as “Inactive”. Also, in experiment [2] (setting [4]), the IC50 was found to be 300 µM.
As to `COc1cc2c(cc1OC)CN1CCc3cc4c(cc3[C@@H]1C2)OCO4` [M-R-0011], the figures for the half-inhibitory concentration (IC50) in experiment [1] (setting [3]) and in experiment [2] (setting [4]) were 70 µM and 120 µM, respectively.
In the same order, the values of `COc1ccc2c(c1O)[C@H](Cc1ccccc1)N1CCc3cc4c(cc3[C@@H]1C2)OCO4` [M-R-0012] are > 700 µM and > 600 µM.
Consider `COc1cc2c(cc1O)[C@@H](Cc1ccccc1)N1CCc3cc4c(cc3[C@@H]1C2)OCO4` [M-R-0013], for which the IC50 in experiment [1] (setting [3]) worked out at 700 µM; in experiment [2] (setting [6]) it was 75 µM.
With `COc1ccc2c(c1)CCN1[C@@H](c3ccccc3)c3cc(O)c(O)cc3C[C@@H]21` [M-R-0014], the 50% inhibitory concentration (IC50) is 70 µM in experiment [1] (setting [3]) and 10 µM in experiment [2] (setting [4]).
Take `COc1ccc2c(c1)CCN1[C@H](c3ccccc3)c3cc(O)c(O)cc3C[C@@H]21` [M-R-0015]: the IC50 came to 130 µM in experiment [1] (setting [3]) and 25 µM in experiment [2] (setting [4]).
In the same order, the values of `COc1ccc2c(c1)CCN1[C@H](Cc3ccccc3)c3c(ccc(OC)c3O)C[C@@H]21` [M-R-0016] are 700 µM and 75 µM.
`COc1ccc2c(c1)CCN1[C@H](Cc3ccccc3)c3cc(OC)c(O)cc3C[C@@H]21` [M-R-0017]: the IC50 in experiment [1] (setting [3]) was 60 µM; in experiment [2] (setting [4]), 55 µM.
In the same order, the values of `COc1cc2c(cc1O)C[C@H]1c3cc4c(cc3CCN1[C@H]2c1ccccc1)OCO4` [M-R-0018] are 30 µM and 35 µM.
With `COc1cc2c(cc1O)C[C@H]1c3cc4c(cc3CCN1[C@@H]2c1ccccc1)OCO4` [M-R-0019], the concentration for half-maximal inhibition (IC50) was 50 µM in experiment [1] (setting [3]) and 45 µM in experiment [2] (setting [4]).
Take `COc1ccc2c(c1)CCN1[C@@H](c3ccccc3Br)c3c(O)c(OC)cc(Br)c3C[C@@H]21` [M-R-0020]: the 50% inhibitory concentration (IC50) in experiment [1] (setting [3]) stood at 30 µM; in experiment [2] (setting [4]) it was 18 µM.
As to `COc1ccc2c(c1)CCN1[C@H](Cc3ccccc3)c3c(O)c(OC)cc(Br)c3C[C@@H]21` [M-R-0021], the half-maximal inhibitory concentration (IC50) in experiment [1] (setting [3]) was ~350 µM; in experiment [2] (setting [4]), 65 µM.
For the compound `COc1ccc2c(c1)CCN1[C@@H](c3ccccc3N)c3c(O)c(OC)cc(Br)c3C[C@@H]21` [M-R-0022], the IC50 came to 30 µM in experiment [1] (setting [3]) and 25 µM in experiment [2] (setting [4]).
Consider `COc1ccc2c(c1)CCN1[C@H](c3ccccc3)c3c(O)c(OC)cc(Br)c3C[C@@H]21` [M-R-0023], for which the results for the half-inhibitory concentration (IC50) in experiment [1] (setting [3]) and in experiment [2] (setting [4]) were 40 µM and 27 µM, respectively.
With `COc1ccc2c(c1)CCN1[C@H](c3ccccc3)c3c(ccc(OC)c3O)C[C@@H]21` [M-R-0024], the IC50 in experiment [1] (setting [3]) worked out at 70 µM; in experiment [2] (setting [4]), 60 µM.
For the compound `COc1cc2c(cc1O)[C@@H](Cc1ccccc1)N1CCc3cc4c(cc3[C@@H]1C2)OCO4` [M-R-0025], the 50% inhibitory concentration (IC50) in experiment [1] (setting [5]) is ~350 µM; in experiment [2] (setting [6]), > 160 µM.
Take `COc1cc2c(cc1O)[C@H](Cc1ccccc1)N1CCc3cc4c(cc3[C@@H]1C2)OCO4` [M-R-0026]: the figures for the 50% inhibitory concentration (IC50) in experiment [1] (setting [3]) and in experiment [2] (setting [4]) were 60 µM and 55 µM, respectively.

In general, IC50 refers to the midpoint of a concentration-inhibition curve.
